Results reported in PubChem BioAssay AID2060616 (Molecular Pharmacology Branch, DTP, NCI, 2025).
Several values for one entry are separate records, joined by “and”; a condition that tells them apart may be missing. Identical values can stand only once.

Tested on: 377384-186-R-J1-PDC complex spheroid viability
Test: Anticancer human tumor 377384-186-R-J1-PDC patient-derived pancreatic carcinoma cell line growth inhibition [CLK]
Settings: for viability, T/C: stronger effect = lower value
Summary of the method: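 Multi-cell-type spheroids combined patient-derived tumor cells with HUVEC endothelial cells and human mesenchymal stem cells. Paired agents were dosed in half-log steps down from about clinical Cmax, or from 10 microM where Cmax was unknown.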

[1] = curve of first compound, second compound 0.0316 µM
[2] = curve of first compound, second compound 0.1 µM
[3] = curve of first compound, second compound 0.316 µM
[4] = curve of first compound, second compound 1 µM
[5] = curve of first compound, second compound 3.16 µM
[6] = curve of first compound, second compound 10 µM
[7] = second compound 0.0316 µM, first compound 0.0316 µM
[8] = second compound 0.0316 µM, first compound 0.1 µM
[9] = second compound 0.0316 µM, first compound 0.316 µM
[10] = second compound 0.0316 µM, first compound 1 µM
[11] = second compound 0.0316 µM, first compound 3.16 µM
[12] = second compound 0.0316 µM, first compound 10 µM
[13] = second compound 0.1 µM, first compound 0.0316 µM
[14] = second compound 0.1 µM, first compound 0.1 µM
[15] = second compound 0.1 µM, first compound 0.316 µM
[16] = second compound 0.1 µM, first compound 1 µM
[17] = second compound 0.1 µM, first compound 3.16 µM
[18] = second compound 0.1 µM, first compound 10 µM
[19] = second compound 0.316 µM, first compound 0.0316 µM
[20] = second compound 0.316 µM, first compound 0.1 µM
[21] = second compound 0.316 µM, first compound 0.316 µM
[22] = second compound 0.316 µM, first compound 1 µM
[23] = second compound 0.316 µM, first compound 3.16 µM
[24] = second compound 0.316 µM, first compound 10 µM
[25] = second compound 1 µM, first compound 0.0316 µM
[26] = second compound 1 µM, first compound 0.1 µM
[27] = second compound 1 µM, first compound 0.316 µM
[28] = second compound 1 µM, first compound 1 µM
[29] = second compound 1 µM, first compound 3.16 µM
[30] = second compound 1 µM, first compound 10 µM
[31] = second compound 3.16 µM, first compound 0.0316 µM
[32] = second compound 3.16 µM, first compound 0.1 µM
[33] = second compound 3.16 µM, first compound 0.316 µM
[34] = second compound 3.16 µM, first compound 1 µM
[35] = second compound 3.16 µM, first compound 3.16 µM
[36] = second compound 3.16 µM, first compound 10 µM
[37] = second compound 10 µM, first compound 0.0316 µM
[38] = second compound 10 µM, first compound 0.1 µM
[39] = second compound 10 µM, first compound 0.316 µM
[40] = second compound 10 µM, first compound 1 µM
[41] = second compound 10 µM, first compound 3.16 µM
[42] = second compound 10 µM, first compound 10 µM
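Also: spheroids exposed to agents for 7 days before reading.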
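For viability, T/C in this document: luminescence signal used as a stand-in for viable cells.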

SMILES: COC1C=CCC(C)C(C)S(=O)(=O)NC(=O)c2ccc3c(c2)N(CC2CCC21)CC1(CCCc2cc(Cl)ccc21)CO3 (stereo not drawn) + CNC(=O)c1ccc(Nc2nc(OC3CCCC3)c3c(-c4ccc5nc(C)oc5c4)c[nH]c3n2)c(OC)c1
- IC50 [1]: 5940 nM
- IC50 [2]: 4470 nM
- IC50 [3]: < 31.6 nM
- IC50 [4]: < 31.6 nM
- IC50 [5]: < 31.6 nM
- IC50 [6]: < 31.6 nM
- viability, T/C [7]: 100%
- viability, T/C [8]: 99.6%
- viability, T/C [9]: 97.8%
- viability, T/C [10]: 92.9%
- viability, T/C [11]: 84.2%
- viability, T/C [12]: 22.4%
- viability, T/C [13]: 57.9%
- viability, T/C [14]: 61.9%
- viability, T/C [15]: 56%
- viability, T/C [16]: 68.4%
- viability, T/C [17]: 60%
- viability, T/C [18]: 26.2%
- viability, T/C [19]: 19.9%
- viability, T/C [20]: 17.2%
- viability, T/C [21]: 18.3%
- viability, T/C [22]: 16.8%
- viability, T/C [23]: 23%
- viability, T/C [24]: 19.2%
- viability, T/C [25]: 19%
- viability, T/C [26]: 17.6%
- viability, T/C [27]: 14.9%
- viability, T/C [28]: 12.4%
- viability, T/C [29]: 17.8%
- viability, T/C [30]: 21.9%
- viability, T/C [31]: 18.9%
- viability, T/C [32]: 18.9%
- viability, T/C [33]: 13.4%
- viability, T/C [34]: 13.9%
- viability, T/C [35]: 14.6%
- viability, T/C [36]: 20.8%
- viability, T/C [37]: 18.5%
- viability, T/C [38]: 16.6%
- viability, T/C [39]: 15.1%
- viability, T/C [40]: 12.4%
- viability, T/C [41]: 12.3%
- viability, T/C [42]: 18%

SMILES: CC(Nc1ccc2c(c1)OCCn1cc(N3C(=O)OCC3C(F)F)nc1-2)C(N)=O (stereo not drawn) + CNC(=O)c1ccc(Nc2nc(OC3CCCC3)c3c(-c4ccc5nc(C)oc5c4)c[nH]c3n2)c(OC)c1
- IC50 [1]: 905 nM
- IC50 [2]: 221 nM
- IC50 [3]: < 31.6 nM
- IC50 [4]: < 31.6 nM
- IC50 [5]: < 31.6 nM
- IC50 [6]: < 31.6 nM
- viability, T/C [7]: 84.8%
- viability, T/C [8]: 90.6%
- viability, T/C [9]: 71.2%
- viability, T/C [10]: 49.1%
- viability, T/C [11]: 41.6%
- viability, T/C [12]: 41.2%
- viability, T/C [13]: 59%
- viability, T/C [14]: 61.5%
- viability, T/C [15]: 41.7%
- viability, T/C [16]: 42.8%
- viability, T/C [17]: 33.4%
- viability, T/C [18]: 29%
- viability, T/C [19]: 21.1%
- viability, T/C [20]: 20.5%
- viability, T/C [21]: 18.4%
- viability, T/C [22]: 15%
- viability, T/C [23]: 13.5%
- viability, T/C [24]: 14%
- viability, T/C [25]: 18.1%
- viability, T/C [26]: 14.4%
- viability, T/C [27]: 14.4%
- viability, T/C [28]: 14.8%
- viability, T/C [29]: 12.8%
- viability, T/C [30]: 12.6%
- viability, T/C [31]: 17.7%
- viability, T/C [32]: 18.5%
- viability, T/C [33]: 18%
- viability, T/C [34]: 14.2%
- viability, T/C [35]: 13.1%
- viability, T/C [36]: 11.8%
- viability, T/C [37]: 16.1%
- viability, T/C [38]: 17.5%
- viability, T/C [39]: 14.1%
- viability, T/C [40]: 15.6%
- viability, T/C [41]: 13.4%
- viability, T/C [42]: 11.6%

SMILES: O=C(c1cc(Cc2n[nH]c(=O)c3ccccc23)ccc1F)N1CCN(C(=O)C2CC2)CC1 + CN1CCN(c2cc(C(=O)Nc3cc4cc(-c5cnn(C)c5)ccc4cn3)ccn2)CC1
- IC50 [1]: > 10000 nM
- IC50 [2]: 6680 nM
- IC50 [3]: < 31.6 nM
- IC50 [4]: < 31.6 nM
- IC50 [5]: < 31.6 nM
- IC50 [6]: < 31.6 nM
- viability, T/C [7]: 87.8%
- viability, T/C [8]: 85.3%
- viability, T/C [9]: 81%
- viability, T/C [10]: 77.7%
- viability, T/C [11]: 65.1%
- viability, T/C [12]: 52.7%
- viability, T/C [13]: 83.9%
- viability, T/C [14]: 89.8%
- viability, T/C [15]: 77%
- viability, T/C [16]: 78.5%
- viability, T/C [17]: 63.3%
- viability, T/C [18]: 42.6%
- viability, T/C [19]: 24%
- viability, T/C [20]: 32.5%
- viability, T/C [21]: 27.3%
- viability, T/C [22]: 27.1%
- viability, T/C [23]: 24.1%
- viability, T/C [24]: 22.7%
- viability, T/C [25]: 1.23%
- viability, T/C [26]: 1.25%
- viability, T/C [27]: 1.1%
- viability, T/C [28]: 1.53%
- viability, T/C [29]: 1.47%
- viability, T/C [30]: 0.93%
- viability, T/C [31]: 0.4%
- viability, T/C [32]: 0.39%
- viability, T/C [33]: 0.42%
- viability, T/C [34]: 0.45%
- viability, T/C [35]: 0.37%
- viability, T/C [36]: 1.27%
- viability, T/C [37]: 0.42%
- viability, T/C [38]: 1.09%
- viability, T/C [39]: 1.28%
- viability, T/C [40]: 0.44%
- viability, T/C [41]: 0.49%
- viability, T/C [42]: 0.38%

SMILES: CCN1CCN(Cc2ccc(Nc3ncc(F)c(-c4cc(F)c5nc(C)n(C(C)C)c5c4)n3)nc2)CC1
- viability, T/C (compound 0.00316 µM): 84.8% and 87.7%
- viability, T/C (compound 0.01 µM): 74.9% and 74.1%
- viability, T/C (compound 0.0316 µM): 74% and 73.8%
- viability, T/C (compound 0.1 µM): 61% and 58.6%
- viability, T/C (compound 0.316 µM): 45.6% and 50.9%
- viability, T/C (compound 1 µM): 39.5% and 40.4%
- IC50 (curve of compound): 245 nM and 335 nM
